{"source": "patent US20210275624A1", "about": "“TREATMENTS FOR IMPROVING OR LESSENING IMPAIRMENT OF MITOCHONDRIAL FUNCTION” (priority 2020, published 2021)", "key": {"HMOX-1": {"system": "HMOX-1", "experiment": "Real-time RT-PCR (qPCR) of HMOX-1", "type": "cell-based, human", "settings": "4 hours", "method": "RPE cells in triplicate wells of a 12-well plate were treated with HQ (250 μM) in the presence or absence of RSG (0.4 mM) for 4 hours. Total RNA was isolated using RNeasy Plus Mini Kit according to the manufacturer's specifications and real-time quantitative reverse transcription-polymerase chain reaction (qPCR) was performed as we have described previously. Primer pairs for HMOX-1 and ribosomal protein, large, PO (RPLPO) were as follows (5′ to 3′): HMOX-1, forward: CAG GAG CTG ACC CAT GA; reverse: AGCAACTGTCGCCACCAGAA; RPLPO, forward: GGACATGTTGCTGGCCAATAA; reverse: GGG CCC GAG ACC AGT GTT."}, "human RPE cells [1]": {"system": "human RPE cells", "experiment": "Determination of ROS (CM-H2DCFDA fluorescence)", "type": "cell-based", "settings": "HQ 160 μM vs control", "method": "Human donor RPE cells were seeded on collagen-coated 96-well plates, 24-well plates with or without coverslips, 6-well plates (Corning-Costar Incorporated, Corning, N.Y., USA). Except for the Seahorse assay, on day 6 after plating, cells were washed twice with serum-free and phenol red-free MEM (SF-MEM), treated with HQ at a various concentrations in the presence or absence of RSG (0.4 mM) in SF-MEM for various times at 37° C. RSG co-treatment refers to the condition in which cells were treated with RSG in the presence of HQ. Control refers to the condition in which cells were not treated. RPE cells in triplicate wells of a 96-well black plates with clear bottoms were washed with SF-MEM, loaded with 20 μM CM-H2DCFDA in SF-MEM for 30 minutes at 37° C. and then washed twice. Cells were then treated with HQ (160 μM) in the presence or absence of RSG (0.4 mM). Fluorescence was measured at various times with a fluorescence plate reader (490 nm excitation, 522 nm emission)."}, "human RPE cells [2]": {"system": "human RPE cells", "experiment": "RNA-seq whole transcriptome analysis", "type": "cell-based", "settings": "4 hours", "method": "RPE cells in sextuplicate wells of a 6-well plate were treated for 4 hours with HQ (250 μM or 300 μM) in the presence or absence of RSG (0.4 mM). Total RNA was extracted using an RNeasy Mini Kit and DNA was removed with TURBO DNA-free kit. RNA quality was measured with a Bioanalyzer (Agilent Genomics, Santa Clara, Calif., USA). RNA-seq libraries were prepared from poly-A enriched messenger RNA and sequenced by GENEWIZ (South […], NJ, USA) to generate approximately 20-30 million paired-end, 150 base-pair reads per sample. RNA-seq FASTQ files were quality-tested with FastQC. Reads were aligned with STAR to human genome (GRCh38.p12) and transcriptome ([…]30) references, followed by read-quantification with featureCounts. Principal component analysis (PCA) was used to visualize the high-dimensional RNA-seq dataset using the top 15 thousand genes that had the highest average counts, as normalized by DESeq2's VST method. […] Enriched biological processes were condensed and visualized with […] with similarity metric set to small and GO term size determined by Uniport Homo Sapiens database; biologically relevant processes were selected and labeled. Six enriched KEGG pathways were selected for visualization of gene expression changes, based on their biological relevance and strength of negative correlation between HQ and RSG co-treatment. Empirical RNA-seq Sample Size Analysis (ERSSA) was used to check whether the six biological replicates used in this study were sufficient for differential expression discovery; analysis was performed with log 2FC cutoff of 0.25 and 50 subsamples at each replicate level."}, "dog heart failure model": {"system": "dog heart failure model", "experiment": "Dog heart failure model (coronary microembolization), ventriculographic and hemodynamic measurements", "type": "in vivo", "settings": "for Left Ventricle Ejection Fraction: n = 3, pretreatment 32; for Cardiac Output, Δ vs pretreatment / Left Ventricle Ejection Fraction, Δ vs pretreatment / Stroke Volume, Δ vs pretreatment / Cardiac Output / Mean Pulmonary Artery Wedge Pressure / L V End Diastolic Pressure / Mean Pulmonary Artery Pressure / Stroke Volume / L V End Systolic Volume / L V End Diastolic Volume / Mean Aortic Pressure / Heart Rate / Systemic Vascular Resistance / L V Peak + dP/dt: post 3rd inj.; for Cardiac Output: pretreatment 1.81; for Mean Pulmonary Artery Wedge Pressure: pretreatment 9.3; for L V End Diastolic Pressure: pretreatment 13; for Mean Pulmonary Artery Pressure: pretreatment 17; for Stroke Volume: pretreatment 21; for L V End Systolic Volume: pretreatment 43; for L V End Diastolic Volume: pretreatment 64; for Mean Aortic Pressure: pretreatment 75; for Heart Rate: pretreatment 88; for Systemic Vascular Resistance: pretreatment 3391", "method": "An initial study was conducted to assess the effects of Risuteganib administered intravenously at doses of 1.0 mg/kg and 5.0 mg/kg in a dog heart failure model. The subject animals underwent coronary microembolization to induce heart failure as described in Sabbah, H., et al.; Chronic Therapy with Elamipretide (MTP-131), a Novel Mitochondria-Targeting Peptide, Improves Left Ventricular and Mitochondrial Function in Dogs with Advanced Heart Failure; Circ Heart Fail. 2016 February; 9(2): e002206. doi:10.1161/CIRCHEARTFAILURE.115.002206.\nThree (3) dogs were received 1.0 mg/kg Risuteganib every 2 weeks for 6 weeks. After an intervening period of approximately one week, the same three (3) dogs then received 5.0 mg/kg Risuteganib every 2 weeks for 6 additional weeks. Ventriculographic and hemodynamic measurements were made prior to the first intravenous dose of Risuteganib, after the third biweekly 1.0 mg/kg intravenous dose of Risuteganib and again after the third biweekly 5.0 mg/kg intravenous dose of Risuteganib."}, "[3]": {"settings": "1.0 mg/kg IV q 2 weeks for 6 weeks"}, "[4]": {"settings": "5.0 mg/kg IV q 2 weeks for 6 weeks"}}, "note": "Square brackets hold non-standard residues; d marks the D form. Peptide text beside a SMILES is read from it. Cya = N[C@@H](CS(=O)(=O)O)C(=O)O", "data": [{"compound": "Oc1ccc(O)cc1", "note": "[HQ, hydroquinone, reference compound]", "values": [{"measurement": "HMOX-1 gene level (qPCR)", "setting": "HMOX-1; HQ 250 μM", "value": "significantly up-regulated"}, {"measurement": "ROS production", "setting": "human RPE cells [1]", "value": "significantly increased"}, {"measurement": "number of genes changed (differential expression)", "setting": "human RPE cells [2]; HQ 250 μM or 300 μM, vs control", "value": "approximately seven thousand"}, {"measurement": "HMOX-1 gene expression increase (RNA-seq)", "setting": "human RPE cells [2]; HQ 250 μM", "value": 618, "unit": "%"}, {"measurement": "HMOX-1 gene expression increase (RNA-seq)", "setting": "human RPE cells [2]; HQ 300 μM", "value": 420, "unit": "%"}]}, {"compound": "C[C@@H](O)[C@H](NC(=O)[C@H](CS(=O)(=O)O)NC(=O)CNC(=O)[C@H](CCCNC(=N)N)NC(=O)CN)C(=O)N1CCC[C@H]1C(=O)O", "note": "[Risuteganib, Glycyl-L-arginylglycyl-3-sulfo-L-alanyl-L-threonyl-L-proline] (H-GRG[Cya]TP-OH)", "values": [{"measurement": "HMOX-1 gene level (qPCR)", "setting": "HMOX-1; RSG 0.4 mM co-treatment with HQ 250 μM", "value": "further up-regulated"}, {"measurement": "HMOX-1 gene expression increase (RNA-seq)", "setting": "human RPE cells [2]; RSG 0.4 mM co-treatment vs 250 μM HQ alone", "value": 241, "unit": "%"}, {"measurement": "HMOX-1 gene expression increase (RNA-seq)", "setting": "human RPE cells [2]; RSG 0.4 mM co-treatment vs 300 μM HQ alone", "value": 391, "unit": "%"}, {"measurement": "genes regulated (differential expression)", "setting": "human RPE cells [2]; RSG 0.4 mM co-treatment vs HQ alone", "value": "regulated thousands of genes"}, {"measurement": "number of differentially expressed (DE) genes", "setting": "human RPE cells [2]; RSG alone 0.4 mM, vs control", "value": 15, "unit": "genes"}, {"measurement": "Left Ventricle Ejection Fraction", "setting": "dog heart failure model; 1.0 mg/kg IV q 2 weeks for 6 weeks, post 3rd 1.0 mg/kg IV inj.", "value": 37, "unit": "%"}, {"measurement": "Cardiac Output, Δ vs pretreatment", "setting": "dog heart failure model; [3]", "value": "Δ = +0.14 L/min"}, {"measurement": "Left Ventricle Ejection Fraction, Δ vs pretreatment", "setting": "dog heart failure model; [3]", "value": "Δ = +5%"}, {"measurement": "Stroke Volume, Δ vs pretreatment", "setting": "dog heart failure model; [3]", "value": "Δ = +2 mL"}, {"measurement": "Cardiac Output", "setting": "dog heart failure model; [3]", "value": 1.95, "unit": "L/min"}, {"measurement": "Mean Pulmonary Artery Wedge Pressure", "setting": "dog heart failure model; [3]", "value": 9.0, "unit": "mmHg"}, {"measurement": "L V End Diastolic Pressure", "setting": "dog heart failure model; [3]", "value": 13, "unit": "mmHg"}, {"measurement": "Mean Pulmonary Artery Pressure", "setting": "dog heart failure model; [3]", "value": 16, "unit": "mmHg"}, {"measurement": "Stroke Volume", "setting": "dog heart failure model; [3]", "value": 23, "unit": "mL"}, {"measurement": "L V End Systolic Volume", "setting": "dog heart failure model; [3]", "value": 0.04, "unit": "L"}, {"measurement": "L V End Diastolic Volume", "setting": "dog heart failure model; [3]", "value": 0.063, "unit": "L"}, {"measurement": "Mean Aortic Pressure", "setting": "dog heart failure model; [3]", "value": 71, "unit": "mmHg"}, {"measurement": "Heart Rate", "setting": "dog heart failure model; [3]", "value": 86, "unit": "beats/min"}, {"measurement": "Systemic Vascular Resistance", "setting": "dog heart failure model; [3]", "value": 2954, "unit": "dynes-sec-cm-5"}, {"measurement": "Left Ventricle Ejection Fraction", "setting": "dog heart failure model; 5.0 mg/kg IV q 2 weeks for 6 weeks, post 3rd 5.0 mg/kg IV inj.", "value": 41, "unit": "%"}, {"measurement": "Cardiac Output, Δ vs pretreatment", "setting": "dog heart failure model; [4]", "value": "Δ = +0.57 L/min"}, {"measurement": "Left Ventricle Ejection Fraction, Δ vs pretreatment", "setting": "dog heart failure model; [4]", "value": "Δ = +9%"}, {"measurement": "Stroke Volume, Δ vs pretreatment", "setting": "dog heart failure model; [4]", "value": "Δ = +5 mL"}, {"measurement": "Cardiac Output", "setting": "dog heart failure model; [4]", "value": 2.38, "unit": "L/min"}, {"measurement": "Mean Pulmonary Artery Wedge Pressure", "setting": "dog heart failure model; [4]", "value": 9.0, "unit": "mmHg"}, {"measurement": "L V End Diastolic Pressure", "setting": "dog heart failure model; [4]", "value": 13, "unit": "mmHg"}, {"measurement": "Mean Pulmonary Artery Pressure", "setting": "dog heart failure model; [4]", "value": 16, "unit": "mmHg"}, {"measurement": "Stroke Volume", "setting": "dog heart failure model; [4]", "value": 27, "unit": "mL"}, {"measurement": "L V End Systolic Volume", "setting": "dog heart failure model; [4]", "value": 0.039, "unit": "L"}, {"measurement": "L V End Diastolic Volume", "setting": "dog heart failure model; [4]", "value": 0.067, "unit": "L"}, {"measurement": "Mean Aortic Pressure", "setting": "dog heart failure model; [4]", "value": 84, "unit": "mmHg"}, {"measurement": "Heart Rate", "setting": "dog heart failure model; [4]", "value": 87, "unit": "beats/min"}, {"measurement": "Systemic Vascular Resistance", "setting": "dog heart failure model; [4]", "value": 2924, "unit": "dynes-sec-cm-5"}, {"measurement": "L V Peak + dP/dt", "setting": "dog heart failure model; first line so headed (r26), 1.0 mg/kg IV q 2 weeks for 6 weeks, pretreatment 1241", "value": 1267, "unit": "mmHg/sec"}, {"measurement": "L V Peak + dP/dt", "setting": "dog heart failure model; first line so headed (r26), 5.0 mg/kg IV q 2 weeks for 6 weeks, pretreatment 1241", "value": 1288, "unit": "mmHg/sec"}, {"measurement": "cardiac function", "setting": "dog heart failure model; heart failure dogs, 1.0 mg/kg and 5.0 mg/kg intravenously", "value": "improved"}, {"measurement": "L V Peak + dP/dt", "setting": "dog heart failure model; second line so headed (r29), 1.0 mg/kg IV q 2 weeks for 6 weeks, pretreatment 1509", "value": 1325, "unit": "mmHg/sec"}, {"measurement": "L V Peak + dP/dt", "setting": "dog heart failure model; second line so headed (r29), 5.0 mg/kg IV q 2 weeks for 6 weeks, pretreatment 1509", "value": 1338, "unit": "mmHg/sec"}]}]}
